Reference: ChEMBL document CHEMBL5370623, “Discovery of Quinazoline-2,4(1H,3H)-dione Derivatives Containing a Piperizinone Moiety as Potent PARP-1/2 Inhibitors─Design, Synthesis, In Vivo Antitumor Activity, and X-ray Crystal Structure Analysis” (J Med Chem, 2023)
Active and inactive are the calls of the source. The calls are words filed in the database; no cut-off is given here.

Experiments:
MX1 [1] = test: Cytotoxicity against human MX1 cells […] assessed as inhibition of cell growth measured after 72 hrs by MTT assay; assay type: functional, cell-based; conditions: MX1, 72 h
MX1 [2] = test: Potentiation factor, ratio of IC50 for cytotoxicity against human MX1 cells to IC50 for cytotoxicity against human MX1 cells in presence of temozolomide; assay type: functional
Felis catus [3] = species: Felis catus; test: Binding affinity to cat PARP1 assessed as dissociative half-life by SPR assay
Felis catus [4] = species: Felis catus; test: Binding affinity to cat PARP2 assessed as dissociative half-life by SPR assay
MC-38 [5] = test: Antitumor activity against mouse MC38 cells implanted in C57BL/6 mouse assessed as tumor growth inhibition at 50 mg/kg, po qd measured after 17 days; assay type: functional; conditions: time 17 day
MC-38 [6] = test: Antitumor activity against mouse MC38 cells implanted in C57BL/6 mouse assessed as increase in CD8+T cells in tumor at 50 mg/kg, po qd measured after 17 days by flow cytometry analysis; assay type: functional, organism-based; conditions: time 17.0 day
[7] = target: Poly [ADP-ribose] polymerase 2 (Homo sapiens, UniProt Q9UGN5); test: Inhibition of PARP2 (unknown origin)
[8] = target: Poly [ADP-ribose] polymerase 1 (Homo sapiens, UniProt P09874); test: Inhibition of human PARP1 in human MX1 cells assessed as enzyme-DNA trapping activity at 1 uM incubated for 24 hrs by Western blot analysis; assay type: cell-based
[9] = target: Protein mono-ADP-ribosyltransferase PARP10 (Homo sapiens) (UniProt Q53GL7); test: Inhibition of human N-terminal FLAG-tagged/C-terminal Strep-tagged recombinant PARP10 (805 to 1025 residues) expressed in Sf9 cells at 1 uM relative to control
[10] = target: Protein mono-ADP-ribosyltransferase PARP11 (Homo sapiens) (UniProt Q9NR21); test: Inhibition of human N-terminal FLAG-tagged/C-terminal His-tagged recombinant PARP11 (8 to 338 (end) residues) expressed in Sf9 cells at 1 uM relative to control
[11] = target: Protein mono-ADP-ribosyltransferase PARP12 (Homo sapiens) (UniProt Q9H0J9); test: Inhibition of human N-terminal FLAG/His-tagged recombinant PARP12 (500 to 701(end) residues) expressed in Sf9 cells at 1 uM relative to control
[12] = target: Protein mono-ADP-ribosyltransferase PARP14 (Homo sapiens) (UniProt Q460N5); test: Inhibition of human N-terminal GST/His-tagged recombinant PARP14 (1470 to 1801(end) residues) expressed in Sf9 cells at 1 uM relative to control
[13] = target: Protein mono-ADP-ribosyltransferase PARP15 (Homo sapiens) (UniProt Q460N3); test: Inhibition of human N-terminal GST-tagged recombinant PARP15 (221 to 444(end) residues) expressed in Escherichia coli at 1 uM relative to control
[14] = target: Poly [ADP-ribose] polymerase tankyrase-1 (Homo sapiens) (UniProt O95271); test: Inhibition of human recombinant N-terminal GST-tagged TNKS1 (1001 to 1327(end) residues) expressed in Sf9 cells at 1 uM relative to control
[15] = target: Poly [ADP-ribose] polymerase tankyrase-2 (Homo sapiens) (UniProt Q9H2K2); test: Inhibition of human recombinant N-terminal GST-tagged TNKS2 (849 to 1166(end) residues) expressed in Sf9 cells at 1 uM relative to control
[16] = target: Protein mono-ADP-ribosyltransferase TIPARP (Homo sapiens) (UniProt Q7Z3E1); test: Inhibition of PARP7 in human THP-1 cells assessed as induction of TBK1 phosphorylation at 10 uM incubated for 24 hrs by immunoblotting analysis; assay type: cell-based
THP-1 = test: Inhibition of PARP1/2 mediated DNA repair pathway in human THP-1 cells assessed as induction of gamma-H2AX phosphorylation at 10 uM incubated for 24 hrs by immunoblotting analysis; assay type: cell-based
MC-38 [17] = test: Antitumor activity against mouse MC38 cells implanted in C57BL/6 mouse assessed as increase in CD8+T cells in tumor at 10 mg/kg, po qd measured after 17 days by flow cytometry analysis; assay type: functional, organism-based; conditions: time 17.0 day

Sequence of Poly [ADP-ribose] polymerase tankyrase-2 (Homo sapiens) (Q9H2K2 whole entry): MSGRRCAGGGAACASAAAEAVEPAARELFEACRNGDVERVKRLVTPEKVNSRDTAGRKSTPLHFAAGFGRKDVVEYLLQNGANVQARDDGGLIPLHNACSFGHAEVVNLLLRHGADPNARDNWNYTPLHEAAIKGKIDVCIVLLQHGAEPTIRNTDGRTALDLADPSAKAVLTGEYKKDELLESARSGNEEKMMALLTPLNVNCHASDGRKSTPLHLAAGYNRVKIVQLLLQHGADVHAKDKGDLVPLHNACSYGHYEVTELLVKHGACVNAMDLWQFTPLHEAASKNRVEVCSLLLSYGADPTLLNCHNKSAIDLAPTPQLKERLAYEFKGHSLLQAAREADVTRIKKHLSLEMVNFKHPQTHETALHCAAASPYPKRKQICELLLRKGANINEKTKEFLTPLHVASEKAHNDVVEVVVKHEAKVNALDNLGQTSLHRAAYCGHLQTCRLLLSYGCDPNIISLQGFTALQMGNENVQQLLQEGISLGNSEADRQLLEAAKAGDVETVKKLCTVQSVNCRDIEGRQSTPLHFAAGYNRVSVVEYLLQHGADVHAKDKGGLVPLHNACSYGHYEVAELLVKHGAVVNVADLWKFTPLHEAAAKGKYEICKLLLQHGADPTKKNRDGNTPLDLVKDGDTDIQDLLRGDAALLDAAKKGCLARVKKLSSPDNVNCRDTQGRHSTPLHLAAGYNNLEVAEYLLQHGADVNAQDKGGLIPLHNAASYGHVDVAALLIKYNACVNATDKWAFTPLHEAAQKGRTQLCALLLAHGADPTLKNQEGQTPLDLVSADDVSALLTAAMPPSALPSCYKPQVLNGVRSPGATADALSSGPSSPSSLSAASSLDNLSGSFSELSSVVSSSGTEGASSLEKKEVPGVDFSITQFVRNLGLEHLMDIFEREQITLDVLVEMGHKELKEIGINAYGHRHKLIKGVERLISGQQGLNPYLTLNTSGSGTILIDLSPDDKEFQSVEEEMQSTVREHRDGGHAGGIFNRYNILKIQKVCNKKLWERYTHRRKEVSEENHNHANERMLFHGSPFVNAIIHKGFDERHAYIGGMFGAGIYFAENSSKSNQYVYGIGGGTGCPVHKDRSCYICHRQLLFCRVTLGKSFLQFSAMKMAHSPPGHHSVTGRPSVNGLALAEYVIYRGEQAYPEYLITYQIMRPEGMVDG
Sequence of Poly [ADP-ribose] polymerase 1 (P09874 whole entry, the tested form may be a part): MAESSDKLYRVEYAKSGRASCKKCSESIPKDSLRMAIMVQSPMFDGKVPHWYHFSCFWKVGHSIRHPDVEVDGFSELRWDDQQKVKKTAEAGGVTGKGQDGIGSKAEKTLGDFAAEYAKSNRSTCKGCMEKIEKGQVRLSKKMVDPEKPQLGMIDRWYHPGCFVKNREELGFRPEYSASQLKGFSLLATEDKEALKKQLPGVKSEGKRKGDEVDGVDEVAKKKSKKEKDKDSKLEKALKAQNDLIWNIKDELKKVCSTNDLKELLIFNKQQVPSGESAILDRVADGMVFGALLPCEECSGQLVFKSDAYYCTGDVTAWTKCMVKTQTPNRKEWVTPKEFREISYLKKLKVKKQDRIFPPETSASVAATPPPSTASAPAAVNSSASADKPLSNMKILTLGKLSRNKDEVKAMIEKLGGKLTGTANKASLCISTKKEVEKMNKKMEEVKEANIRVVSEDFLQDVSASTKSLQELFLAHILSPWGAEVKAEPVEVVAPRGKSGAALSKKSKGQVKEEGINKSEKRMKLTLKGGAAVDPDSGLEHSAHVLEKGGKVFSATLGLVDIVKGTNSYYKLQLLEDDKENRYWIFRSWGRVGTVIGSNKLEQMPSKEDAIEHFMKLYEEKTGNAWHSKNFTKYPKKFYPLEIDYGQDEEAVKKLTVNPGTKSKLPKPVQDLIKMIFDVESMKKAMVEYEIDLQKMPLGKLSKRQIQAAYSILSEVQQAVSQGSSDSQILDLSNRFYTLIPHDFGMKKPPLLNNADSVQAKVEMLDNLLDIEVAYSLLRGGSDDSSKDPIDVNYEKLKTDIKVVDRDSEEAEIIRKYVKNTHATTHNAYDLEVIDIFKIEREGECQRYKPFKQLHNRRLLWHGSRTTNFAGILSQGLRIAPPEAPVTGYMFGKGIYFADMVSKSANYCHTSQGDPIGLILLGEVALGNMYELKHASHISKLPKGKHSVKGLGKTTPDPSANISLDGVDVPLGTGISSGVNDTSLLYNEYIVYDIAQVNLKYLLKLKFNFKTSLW
Sequence of Poly [ADP-ribose] polymerase 2 (Q9UGN5 whole entry): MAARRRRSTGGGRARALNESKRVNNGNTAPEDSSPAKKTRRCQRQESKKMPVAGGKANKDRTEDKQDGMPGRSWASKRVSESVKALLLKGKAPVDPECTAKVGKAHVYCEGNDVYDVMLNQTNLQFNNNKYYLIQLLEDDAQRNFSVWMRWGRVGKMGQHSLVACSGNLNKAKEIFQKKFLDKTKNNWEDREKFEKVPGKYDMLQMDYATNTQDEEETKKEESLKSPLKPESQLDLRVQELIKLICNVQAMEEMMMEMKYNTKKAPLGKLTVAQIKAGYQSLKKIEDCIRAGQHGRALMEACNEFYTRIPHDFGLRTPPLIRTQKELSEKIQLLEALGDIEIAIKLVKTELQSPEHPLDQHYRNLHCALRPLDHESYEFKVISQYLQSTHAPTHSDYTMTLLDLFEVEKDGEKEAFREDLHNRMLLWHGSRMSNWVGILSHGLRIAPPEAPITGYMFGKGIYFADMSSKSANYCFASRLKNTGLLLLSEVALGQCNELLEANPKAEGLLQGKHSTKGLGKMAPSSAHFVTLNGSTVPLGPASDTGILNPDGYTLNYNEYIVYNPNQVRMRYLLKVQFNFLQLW
Sequence of Protein mono-ADP-ribosyltransferase PARP12 (Homo sapiens) (Q9H0J9 whole entry): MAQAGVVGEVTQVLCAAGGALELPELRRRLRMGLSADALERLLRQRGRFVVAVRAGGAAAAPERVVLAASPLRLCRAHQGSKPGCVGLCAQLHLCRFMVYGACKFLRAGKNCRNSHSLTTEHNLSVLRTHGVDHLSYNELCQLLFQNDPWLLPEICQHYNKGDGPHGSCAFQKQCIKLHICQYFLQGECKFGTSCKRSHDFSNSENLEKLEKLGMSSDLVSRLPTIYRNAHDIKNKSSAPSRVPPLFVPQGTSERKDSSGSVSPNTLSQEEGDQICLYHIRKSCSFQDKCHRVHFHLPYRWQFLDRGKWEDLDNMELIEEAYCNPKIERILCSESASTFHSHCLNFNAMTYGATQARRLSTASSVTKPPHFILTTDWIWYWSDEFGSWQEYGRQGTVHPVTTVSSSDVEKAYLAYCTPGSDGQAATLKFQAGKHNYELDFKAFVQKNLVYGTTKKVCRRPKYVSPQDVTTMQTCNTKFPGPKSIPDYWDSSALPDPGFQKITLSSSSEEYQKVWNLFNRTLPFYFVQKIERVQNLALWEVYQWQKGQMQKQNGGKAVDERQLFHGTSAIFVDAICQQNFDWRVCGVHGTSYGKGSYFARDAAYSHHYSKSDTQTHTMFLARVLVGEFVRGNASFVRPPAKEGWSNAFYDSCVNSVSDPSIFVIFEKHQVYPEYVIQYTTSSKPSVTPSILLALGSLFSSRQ
Sequence of Protein mono-ADP-ribosyltransferase PARP15 (Homo sapiens) (Q460N3 whole entry): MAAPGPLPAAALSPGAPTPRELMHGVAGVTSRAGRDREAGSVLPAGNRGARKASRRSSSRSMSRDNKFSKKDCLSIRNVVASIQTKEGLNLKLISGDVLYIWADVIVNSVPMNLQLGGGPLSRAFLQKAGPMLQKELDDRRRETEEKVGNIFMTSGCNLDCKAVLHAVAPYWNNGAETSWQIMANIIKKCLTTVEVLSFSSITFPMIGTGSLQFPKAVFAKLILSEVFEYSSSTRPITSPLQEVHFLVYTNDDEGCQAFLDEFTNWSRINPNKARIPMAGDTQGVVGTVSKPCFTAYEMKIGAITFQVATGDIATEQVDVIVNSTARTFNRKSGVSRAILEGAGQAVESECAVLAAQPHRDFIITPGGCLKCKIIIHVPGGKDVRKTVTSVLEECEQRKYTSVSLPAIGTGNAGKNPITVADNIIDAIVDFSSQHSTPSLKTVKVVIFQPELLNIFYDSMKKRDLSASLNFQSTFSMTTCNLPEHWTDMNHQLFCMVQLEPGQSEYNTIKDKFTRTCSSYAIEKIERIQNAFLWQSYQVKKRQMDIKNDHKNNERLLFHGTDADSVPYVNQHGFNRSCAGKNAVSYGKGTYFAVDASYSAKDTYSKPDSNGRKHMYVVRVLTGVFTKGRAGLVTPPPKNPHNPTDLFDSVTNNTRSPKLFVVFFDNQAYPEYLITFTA
Sequence of Protein mono-ADP-ribosyltransferase PARP11 (Homo sapiens) (Q9NR21 whole entry): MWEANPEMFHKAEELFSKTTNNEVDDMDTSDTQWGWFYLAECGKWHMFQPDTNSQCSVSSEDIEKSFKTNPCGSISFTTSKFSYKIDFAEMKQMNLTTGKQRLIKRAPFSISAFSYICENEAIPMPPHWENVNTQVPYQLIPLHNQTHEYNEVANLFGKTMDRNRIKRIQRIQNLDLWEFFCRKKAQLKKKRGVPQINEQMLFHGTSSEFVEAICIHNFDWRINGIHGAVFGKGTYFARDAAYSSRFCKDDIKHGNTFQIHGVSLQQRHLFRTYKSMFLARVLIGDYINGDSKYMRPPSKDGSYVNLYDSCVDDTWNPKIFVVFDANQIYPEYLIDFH

Row | T1/2 (Felis catus [3]) | T1/2 (Felis catus [4]) | IC50 [7] | PARP1-DNA trapping activity [8] | inhibition [9] | inhibition [10] | inhibition [11] | inhibition [12] | inhibition [13] | inhibition [14] | inhibition [15] | inhibition [16] | Structure (SMILES) | IC50 (MX1 [1]) | PF50 (MX1 [2]) | TGI (MC-38 [5]) | Activity (MC-38 [6]) | inhibition (THP-1) | Activity (MC-38 [17])
1 | 0.852 h | 0.29 h | – | – | – | – | – | – | – | – | – | – | O=C(c1cc(Cc2n[nH]c(=O)c3ccccc23)ccc1F)N1CCN(C(=O)C2CC2)CC1 [OLAPARIB] | 8.26 nM | >10 | 57.9% | inactive | – | –
2 | – | – | 0.3 nM | – | – | – | – | – | – | – | – | – | C[C@]12CCCN1CC1=NNC(=O)c3cc(F)cc4[nH]c2c1c34 [PAMIPARIB] | – | – | – | – | – | –
3 | 2.36 h | 2.33 h | – | Active | inactive | inactive | inactive | inactive | 45% | inactive | inactive | Active | CCC(CC)N1CCN(C(=O)c2cc(Cn3c(=O)[nH]c(=O)c4ccccc43)ccc2F)CC1=O | – | – | – | – | Active | Active
